Source: patent publication US20250087329A1, “PERSONALISED RECOMMENDED DAILY INTAKE FOR NUTRIENTS BASED ON INDIVIDUAL GENETIC RISK SCORES” (SOCIETE DES PRODUITS NESTLE S.A., priority 2021, published 2025)

Test: Dose-response algorithm for vitamin B12 including polygenic risk score effects (Arivale cohort)
Set-up: species or system human
Conditions: 14-18 risk alleles vs 0-4 risk alleles
Description: A linear regression was performed for the selected SNPs against vitamin B12 in the Arivale cohort. The Arivale cohort consists of individuals over 18 years of age who between 2015 and 2019 self-enrolled in a now closed scientific wellness company. Briefly, majority of Arivale participants (˜80%) were residents of Washington or California when in the program (for further information on the Arivale cohort see Wilmanski et al. 2021). Methyl-malonic acid (MMA) was measured as a biomarker for blood B12 concentrations. MMA is inversely correlated with vitamin B12 blood levels. The distribution of the PRS was normally distributed and the average increase in MMA per risk allele was 3.4 units (Table 5) corresponding to a decrease of approximately […] vitamin B12 (cobalamin) per risk allele.
To estimate individual vitamin B12 intake needs, a genetic term that sums the effects of all risk alleles present in an individual was added to the dose-response model in the form: […]

Question: For cobalamin [vitamin B12], which “intake needed by highest risk score group relative to low risk group to reach the same blood levels” value is on record?
Answer: The value was “five times”.

Same assay, conditions: sufficiency for 97% of the high risk group

Question: With cobalamin [vitamin B12] as the compound, how does the “daily vitamin B12 intake needed for vitamin B12 sufficiency” value read?
Answer: Its value is “higher than 1500 mcg/day”.

Test: not given
Conditions: Person; daily intake; cited from earlier work

Question: Which “UL (tolerable upper intake level)” value does the source give for `[Ca+2]` [Calcium] here?
Answer: Its value is 2500 mg.

Question: Which “UL (tolerable upper intake level)” value does the source give for `Cl` [Chloride] here?
Answer: The value was 3600 mg.

Question: With `C[N+](C)(C)CCO` [Choline] as the compound, how does the “UL (tolerable upper intake level)” value read?
Answer: The value was 3500 mg.

Question: For `F` [Fluoride], which “UL (tolerable upper intake level)” value is on record?
Answer: The value was 10 mg.

Question: With `[Mg+2]` [Magnesium] as the compound, how does the “UL (tolerable upper intake level)” value read?
Answer: Its value is 350 mg.

Question: Which “UL (tolerable upper intake level)” value does the source give for `[Mn+2]` [Manganese] here?
Answer: Its value is 11 mg.

Question: For `O=C(O)c1cccnc1` [Niacin (B3), Niacin], which “UL (tolerable upper intake level)” value is on record?
Answer: The value was 35 mg.

Question: Which “UL (tolerable upper intake level)” value does the source give for `[P]` [Phosphorus] here?
Answer: The value was 4000 mg.

Question: Which “UL (tolerable upper intake level)” value does the source give for `[Se]` [Selenium] here?
Answer: Its value is 0.4 mg.

Question: For `[Na]` [Sodium], which “UL (tolerable upper intake level)” value is on record?
Answer: The value was 2300 mg.

Question: Which “UL (tolerable upper intake level)” value does the source give for `[Zn]` [Zinc] here?
Answer: The value was 40 mg.

Question: With `Cc1c(C)c2c(c(C)c1O)CC[C@@](C)(CCC[C@H](C)CCC[C@H](C)CCCC(C)C)O2` [α-tocopherol (Vitamin E), α-tocopherol] as the compound, how does the “UL (tolerable upper intake level)” value read?
Answer: Its value is 1000 mg.
